Structures are written as SMILES.

In the assay the target is T1, sBAD (formerly sHbaR); LexA-HbaR ligand-binding domain-B112 synthetic transcription factor (Rhodopseudomonas palustris, UniProt Q9RFR5).
T1 construct: expressed in S. cerevisiae CEN.PK 2C-1
T1 sequence (Q9RFR5 1-241 limits assumed): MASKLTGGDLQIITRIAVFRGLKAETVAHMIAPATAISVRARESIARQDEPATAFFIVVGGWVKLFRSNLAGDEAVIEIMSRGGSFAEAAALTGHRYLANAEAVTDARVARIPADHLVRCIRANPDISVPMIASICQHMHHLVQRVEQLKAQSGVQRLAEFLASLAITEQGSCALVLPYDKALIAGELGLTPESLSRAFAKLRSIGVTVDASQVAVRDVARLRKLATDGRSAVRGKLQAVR
In words: mCitrine reporter activation in yeast, flow cytometry, dose-response. Type of assay: cell-based, Saccharomyces cerevisiae. The text has this: mCitrine reporter activation in yeast, flow cytometry, dose-response on sBAD (formerly sHbaR); LexA-HbaR ligand-binding domain-B112 synthetic transcription factor
A general note: Flow cytometry measures light scatter and fluorescence of single cells or particles in a stream.
`CC(=O)Oc1ccccc1C(=O)O` [aspirin]: the EC50 (as a rule, the midpoint of the concentration-response curve) was determined as 598 ± 283 µM.
Molecule `Nc1ccc(C(=O)O)cc1` [pABA, 4-aminobenzoic acid] yielded an EC50 of 169 ± 81 µM.
On to `O=C(O)c1ccc(O)cc1` [HBA, 4-hydroxybenzoic acid], for which the EC50 came to 749 ± 399 µM.
Next, `O=C(O)c1ccccc1` [benzoic acid]: 47 ± 20 µM.
